Assays:
serum of BALB/c mice = test: Dot-ELISA, synthetic peptides with serum of immunized BALB/c mice; format: in vivo; design: key to Peptide Reactivity, Mice serum inoculated with isolated peptides 1 / Peptide Reactivity, Mice serum inoculated with isolated peptides 2 / Peptide Reactivity, Mice serum inoculated with isolated peptides 3 / Peptide Reactivity, Mice serum inoculated with pool / Peptide Reactivity, Mice serum inoculated with Saline (Negative Control) / Reaction with pool of peptides, Mouse 1 serum / Reaction with pool of peptides, Mouse 2 serum / Reaction with pool of peptides, Mouse 3 serum: — = Did not react; X = Reacted; details: for Peptide Reactivity, Mice serum inoculated with pool / Peptide Reactivity, Mice serum inoculated with isolated peptides 1 / Peptide Reactivity, Mice serum inoculated with isolated peptides 2 / Peptide Reactivity, Mice serum inoculated with isolated peptides 3 / Peptide Reactivity, Mice serum inoculated with Saline (Negative Control) / Reaction with pool of peptides, Mouse 1 serum / Reaction with pool of peptides, Mouse 2 serum / Reaction with pool of peptides, Mouse 3 serum: Dot-ELISA; for Peptide Reactivity, Mice serum inoculated with pool / Peptide Reactivity, Mice serum inoculated with isolated peptides 1 / Peptide Reactivity, Mice serum inoculated with isolated peptides 2 / Peptide Reactivity, Mice serum inoculated with isolated peptides 3 / Peptide Reactivity, Mice serum inoculated with Saline (Negative Control) / Dot-ELISA reaction of mouse sera inoculated with the peptide pool / Dot-ELISA reaction of sera from mice inoculated with hybrid peptides alone: peptide as antigen; for Peptide Reactivity, Mice serum inoculated with pool: mice inoculated with pool of all 8 hybrid peptides; for Peptide Reactivity, Mice serum inoculated with isolated peptides 1: serum of mouse 1 inoculated with the same isolated peptide; for Peptide Reactivity, Mice serum inoculated with isolated peptides 1 / Peptide Reactivity, Mice serum inoculated with isolated peptides 2 / Peptide Reactivity, Mice serum inoculated with isolated peptides 3: serum 1:25; for Peptide Reactivity, Mice serum inoculated with isolated peptides 2: serum of mouse 2 inoculated with the same isolated peptide; for Peptide Reactivity, Mice serum inoculated with isolated peptides 3: serum of mouse 3 inoculated with the same isolated peptide; for Peptide Reactivity, Mice serum inoculated with Saline (Negative Control): serum of saline-inoculated mice; for Reaction with pool of peptides, Mouse 1 serum / Reaction with pool of peptides, Mouse 2 serum / Reaction with pool of peptides, Mouse 3 serum: pool of peptides as antigen; for Reaction with pool of peptides, Mouse 1 serum: serum of mouse 1 inoculated with the labelled peptide; for Reaction with pool of peptides, Mouse 2 serum: serum of mouse 2 inoculated with the labelled peptide; for Reaction with pool of peptides, Mouse 3 serum: serum of mouse 3 inoculated with the labelled peptide; for Dot-ELISA reaction of mouse sera inoculated with the peptide pool: pool of all 8 hybrid peptides
Method: (§1) The immunogenicity of each peptide was checked immunizing BALB/c mice, approximately six weeks old, with […] of protein (Machado et al., 1994). The mice were divided into groups of three animals each. The groups were: P28, P41, P42, P44, P50, P51, P53, P54, Pool (mice inoculated with a pool of peptides, in the case with all 8 hybrid peptides) and negative control group. For inoculations, the peptides were emulsified in Freund's complete adjuvant (Sigma) and inoculated intramuscularly in the quadriceps. Two further immunizations, on the 14th and 28th day after inoculation, were performed using incomplete Freund's adjuvant (Sigma). Each inoculation was carried out using 10 μg/mL of each peptide. Negative control mice were inoculated with sterile saline in place of the peptides and also emulsified in adjuvant. Blood samples were collected by intracardiac puncture on the 10th day after the last immunization and the sera obtained were stored at −20° C. until evaluated by Dot-ELISA and Western-blotting assays.
(§2) Synthetic peptides were used as antigen in the Dot-ELISA technique to verify their ability to react with specific antibodies present in the serum of BALB/c mice, as well as in calf serum, all immunized. The technique was performed as described by Machado et al. (1994), with minor modifications. Briefly, small nitrocellulose discs were cut using a paper punch and each disc arranged in a flat bottom 24-well culture plate well. 4 μg/mL of each synthetic peptide alone, as well as the peptide pool, were deposited on each disc. The discs were dried at room temperature and then blocked for 12 hours at room temperature with […] TBS buffer (0.1 M Tris, 0.1 M NaCl and 0.5% Tween 20; TBS-Tween 20), plus 5% skim milk powder. Test sera were diluted 1:25 (mice and calf) in TBS-Tween 20 containing 5% skim milk powder and incubated for 120 minutes at room temperature and under constant stirring. Then the discs were subjected to two washes with TBS-Tween 20 plus 5% skim milk powder and one wash with TBS-Tween 20 (5 min interval between each wash). To each mouse serum disc was added the alkaline phosphate-coupled anti-mouse conjugate (anti-mouse IgG goat IgG, Sigma A-3562) diluted 1:30,000 in TBS-Tween 20 plus 5% of skim milk powder. To calf serum-containing discs, it was added alkaline phosphate-coupled anti-bovine conjugate (anti-cattle IgG rabbit IgG, Sigma A-0705) diluted 1:30,000 in TBS-Tween 20, plus 5% skim milk powder. After one hour incubation with the appropriate conjugates, washes were followed as in the previous step.

calf serum [1] = test: Dot-ELISA, synthetic peptides with serum of calf immunized with peptide pool; format: in vivo; design: key to Peptide Reactivity, Calf serum inoculated with pool: — = Did not react; X = Reacted; details: for Peptide Reactivity, Calf serum inoculated with pool: Dot-ELISA, peptide as antigen, calf inoculated with pool SEQ ID NO: 20, 21, 23, 25, 26; for Dot-ELISA reaction of calf serum inoculated with the peptide pool with the antigen: label = antigen on disc
Source text: (§3) The immunogenicity of the synthetic peptides was verified by immunizing a previously tested calf with negative results for Anaplasma marginale, Babesia bovis and Babesia bigemina by serology and PCR. For inoculations, a peptide pool (SEQ ID NO: 20, SEQ ID NO: 21, SEQ ID NO: 23, SEQ ID NO: 25 and SEQ ID NO: 26) was emulsified in Freund's complete adjuvant (Sigma) and, inoculated intramuscularly in the quadriceps. Two further immunizations, on the 14th and 28th day after inoculation, were performed using incomplete Freund's adjuvant (Sigma). Each inoculation was done using 100 μg/mL of each peptide. Blood samples were collected by jugular puncture on the 10th day after the last immunization and the sera obtained were stored at −20° C. until evaluated by Dot-ELISA and Western-blotting assays.
as §2

[2] = tested on: bovine serum serologically positive / negative / vaccinated for A. marginale; test: Dot-ELISA, synthetic peptides with sera of cattle serologically positive, negative or vaccinated for A. marginale; format: binding; details: peptide as antigen
Method: as §2

mouse serum = test: Western blotting, synthetic peptides with serum of inoculated mice; details: in vivo
Method: as §1
(§4) Samples of synthetic peptides were analyzed by Western blotting. To this end, initially, the samples were submitted to polyacrylamide gel electrophoresis under denaturing conditions, according to the technique recommended by Laemmli (1970). Based on the sample volume 2× concentrated sample buffer (250 mM Tris-HCl pH 6.8, 40% glycerol, 8% SDS, 20% β-mercaptoethanol and 0.008% bromophenol blue) was added. The samples were homogenized, incubated for 5 minutes at 100° C. and applied to the gel. The separation gel was prepared at a concentration of 12% polyacrylamide in buffer (1.875 M Tris, pH 8.8 and 1% SDS) and 5% polyacrylamide for buffer packaging gel (1.875 M Tris, pH 6.8 and 0.5% SDS). Electrophoresis was performed in Tris-Glycine Running Buffer (50 mM Tris, pH 8.6, 1.92 M Glycine and 1% SDS) at 100 V for up to 3 hours and 30 minutes at 0° C. in the Mini-Protean II system (Bio-Rad).
Synthetic peptides processed on the polyacrylamide gel (SDS-PAGE) were transferred to the nitrocellulose membrane for analysis by Wester blot (TOWBIN et al., 1979). The nitrocellulose membrane (Merck) was previously incubated in ice cold transfer buffer (0.58% Tris Base pH 8.3, 20% methanol and 0.29% glycine). For this, the membrane was placed in the “Mini Trans-Blot” (Bio-Rad) electrotransfer system containing the same buffer and the transfer was performed at 100 V for 90 minutes. The membrane was incubated in TBS-Tween (10 mM Tris-HCl pH 7.5; 150 mM NaCl, 0.05% Tween-20) plus 5% skim milk powder for 12 hours at 4° C. under low agitation, for saturation of non-specific binding sites. The membrane was then incubated with each serum from each mouse alone or incubated with calf serum for 2 hours at room temperature under slow stirring. […]

calf serum [3] = test: Western blotting, synthetic peptides with calf serum; format: in vivo; details: label = antigen on blot
Source text: as §3, §4
Synthetic peptides processed on the polyacrylamide gel (SDS-PAGE) were transferred to the nitrocellulose membrane for analysis by Wester blot (TOWBIN et al., 1979). The nitrocellulose membrane (Merck) was previously incubated in ice cold transfer buffer (0.58% Tris Base pH 8.3, 20% methanol and 0.29% glycine). For this, the membrane was placed in the “Mini Trans-Blot” (Bio-Rad) electrotransfer system containing the same buffer and the transfer was performed at 100 V for 90 minutes. The membrane was incubated in TBS-Tween (10 mM Tris-HCl pH 7.5; 150 mM NaCl, 0.05% Tween-20) plus 5% skim milk powder for 12 hours at 4° C. under low agitation, for saturation of non-specific binding sites. The membrane was then incubated with each serum from each mouse alone or incubated with calf serum for 2 hours at room temperature under slow stirring. It was then subjected to three consecutive 10-minute washes with the same solution under slow agitation. […]

Row | Sequence | Peptide Reactivity, Mice serum inoculated with pool (serum of BALB/c mice) | Peptide Reactivity, Mice serum inoculated with isolated peptides 1 (serum of BALB/c mice) | Peptide Reactivity, Mice serum inoculated with isolated peptides 2 (serum of BALB/c mice) | Peptide Reactivity, Mice serum inoculated with isolated peptides 3 (serum of BALB/c mice) | Peptide Reactivity, Mice serum inoculated with Saline (Negative Control) (serum of BALB/c mice) | Reaction with pool of peptides, Mouse 1 serum (serum of BALB/c mice) | Reaction with pool of peptides, Mouse 2 serum (serum of BALB/c mice) | Reaction with pool of peptides, Mouse 3 serum (serum of BALB/c mice) | Dot-ELISA reaction of mouse sera inoculated with the peptide pool (serum of BALB/c mice) | Peptide Reactivity, Calf serum inoculated with pool (calf serum [1]) | Reaction of sera from serologically positive cattle for A. marginale with synthetic peptide [2] | Reaction of sera from vaccinated cattle for A. marginale with synthetic peptide [2] | Dot-ELISA reaction of sera from mice inoculated with hybrid peptides alone (serum of BALB/c mice) | Western blotting reaction of serum of mice inoculated with synthetic peptide (mouse serum) | Western blotting reactivity of calf serum inoculated with the peptide pool (calf serum [3]) | Dot-ELISA reaction of calf serum inoculated with the peptide pool with the antigen (calf serum [1])
1 | SKVASVEYILAARGGGGQVDRLANALGK (Synthetic hybrid peptide) [P28] | — | — | — | — | — | — | X | — | reacted | — | reacted | reacted |  |  |  | 
2 | GASTDDAAAAAKIVAMAYGRGGGGGASSVDALTATKLVAAALGH (Synthetic hybrid peptide) [P44] | — | X | X | X | — | — | — | — |  | X | reacted | reacted | reacted | reacted | showed reactivity | reacted
3 | SSVSSQSDQASTSSQLGGGGAMGDSVHWKVKPVDNKLFIMP (Synthetic hybrid peptide) [P41] | — | — | — | — | — | — | — | — |  | X |  |  |  |  | showed reactivity | reacted
4 | SECVSLQPTDSSSASGQQQEGGGGLQGHMIDAVLETAINSDIPGVLRAIVSRDV (Synthetic hybrid peptide) [P54] | X | X | X | X | — | — | X | — | reacted | — | reacted |  | reacted | reacted |  | 
5 | SKVASVEYILAARGGGGQVDRLANALGKGGGGAMGDSVHWKVKPVDNKLFIMP (Synthetic hybrid peptide) [P53] | X | — | — | — | — | X | X | X | reacted | X | reacted |  |  | reacted | showed reactivity | reacted
6 | LAESTEGNLEEVWILGKGGGGFSESMKALIKKYVDTSKPTIYVDQGTVMKV (Synthetic hybrid peptide) [P51] | X | — | X | X | — | — | X | — | reacted | X |  |  | reacted |  | showed reactivity | reacted

— patent publication US11034735B2, “Hybrid peptide, set of hybrid peptides, composition, uses of the hybrid peptide, method for inducing an immune response and kits” (priority 2017, dated 2021)
